Laboratory results taken from patent publication US8921362B2, “6,7-dialkoxy quinazoline derivatives and methods of treating drug resistant and other tumors” (Natco Pharma Limited, priority 2008, dated 2014).

What was measured:
Assay in all cases: KinomeScan
Format in all cases: binding
Settings in all cases: read-out: % Ctrl @ 10000 nM
[1] = biological target: T1, ABL1 (Homo sapiens, UniProt P00519)
T1 construct: host or cells: E. coli (BL21-derived), T7 phage lysate
Procedure, shortened: (§1)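 Competition binding of kinase-tagged T7 phage (BL21-derived E. coli lysates) to immobilized ligand on biotin-blocked beads; test compound diluted from 40× DMSO stocks, 2.5% DMSO in no-compound controls. Bound phage eluted and titer quantified by qPCR.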

[2] = biological target: T2, ABL2 (Homo sapiens, UniProt P42684)
T2 construct: host or cells: E. coli (BL21-derived), T7 phage lysate
Procedure, shortened: as §1

[3] = biological target: T3, BRK (Homo sapiens, UniProt Q13882)
T3 construct: host or cells: E. coli host derived from BL21
Procedure, shortened: as §1

[4] = biological target: T4, CAMK4 (Homo sapiens, UniProt Q16566)
T4 construct: host or cells: T7 phage in E. coli host derived from BL21
Procedure, shortened: as §1

[5] = biological target: T5, CDK5 (Homo sapiens, UniProt Q00535)
T5 construct: host or cells: T7 phage in E. coli host derived from BL21
Procedure, shortened: as §1

[6] = biological target: T6, CDK7 (Homo sapiens, UniProt P50613)
T6 construct: host or cells: T7 phage in E. coli host derived from BL21
Procedure, shortened: as §1

[7] = biological target: T7, CSNK1G1 (Homo sapiens, UniProt Q9HCP0)
T7 construct: purchased Ambit Biosciences Corp (KinomeScan); host or cells: T7 phage in E. coli host derived from BL21
Procedure, shortened: as §1

[8] = biological target: T8, CSNK2A2 (Homo sapiens, UniProt P19784)
T8 construct: purchased Ambit Biosciences Corp (KinomeScan); host or cells: T7 phage in E. coli host derived from BL21
Procedure, shortened: as §1

[9] = biological target: T9, DRAK2 (Homo sapiens, UniProt O94768)
T9 construct: purchased Ambit Biosciences Corp (KinomeScan); host or cells: T7 phage in E. coli host derived from BL21
Procedure, shortened: as §1

[10] = biological target: T10, EGFR(E746-A750del) (Homo sapiens, UniProt P00533, DEL746-750)
T10 construct: purchased Ambit Biosciences Corp (KinomeScan); host or cells: T7 phage in E. coli host derived from BL21
Procedure, shortened: as §1

[11] = biological target: T11, EPHA3 (Homo sapiens, UniProt P29320)
T11 construct: purchased Ambit Biosciences Corp; host or cells: T7 phage in E. coli host derived from BL21
Procedure, shortened: as §1

[12] = biological target: T12, EPHA4 (Homo sapiens, UniProt P54764)
T12 construct: purchased Ambit Biosciences Corp; host or cells: T7 phage in E. coli host derived from BL21
Procedure, shortened: as §1

[13] = biological target: T13, EPHA6 (Homo sapiens, UniProt Q9UF33)
T13 construct: purchased Ambit Biosciences Corp; host or cells: T7 phage in E. coli host derived from BL21
Procedure, shortened: as §1

[14] = biological target: T14, EPHA8 (Homo sapiens, UniProt P29322)
T14 construct: purchased Ambit Biosciences Corp; host or cells: T7 phage in E. coli host derived from BL21
Procedure, shortened: as §1

[15] = biological target: T15, ERK1 (Homo sapiens, UniProt P27361)
T15 construct: purchased Ambit Biosciences Corp; host or cells: T7 phage in E. coli host derived from BL21
Procedure, shortened: as §1

[16] = biological target: T16, ERK3 (Homo sapiens, UniProt Q16659)
T16 construct: purchased Ambit Biosciences Corp; host or cells: T7 phage in E. coli host derived from BL21
Procedure, shortened: as §1

[17] = biological target: T17, FGFR4 (Homo sapiens, UniProt P22455)
T17 construct: host or cells: T7 phage in E. coli host derived from BL21
Procedure, shortened: as §1

[18] = biological target: T18, GAK (Homo sapiens, UniProt O14976)
T18 construct: host or cells: T7 phage in E. coli host derived from BL21
T18 sequence (O14976 whole entry): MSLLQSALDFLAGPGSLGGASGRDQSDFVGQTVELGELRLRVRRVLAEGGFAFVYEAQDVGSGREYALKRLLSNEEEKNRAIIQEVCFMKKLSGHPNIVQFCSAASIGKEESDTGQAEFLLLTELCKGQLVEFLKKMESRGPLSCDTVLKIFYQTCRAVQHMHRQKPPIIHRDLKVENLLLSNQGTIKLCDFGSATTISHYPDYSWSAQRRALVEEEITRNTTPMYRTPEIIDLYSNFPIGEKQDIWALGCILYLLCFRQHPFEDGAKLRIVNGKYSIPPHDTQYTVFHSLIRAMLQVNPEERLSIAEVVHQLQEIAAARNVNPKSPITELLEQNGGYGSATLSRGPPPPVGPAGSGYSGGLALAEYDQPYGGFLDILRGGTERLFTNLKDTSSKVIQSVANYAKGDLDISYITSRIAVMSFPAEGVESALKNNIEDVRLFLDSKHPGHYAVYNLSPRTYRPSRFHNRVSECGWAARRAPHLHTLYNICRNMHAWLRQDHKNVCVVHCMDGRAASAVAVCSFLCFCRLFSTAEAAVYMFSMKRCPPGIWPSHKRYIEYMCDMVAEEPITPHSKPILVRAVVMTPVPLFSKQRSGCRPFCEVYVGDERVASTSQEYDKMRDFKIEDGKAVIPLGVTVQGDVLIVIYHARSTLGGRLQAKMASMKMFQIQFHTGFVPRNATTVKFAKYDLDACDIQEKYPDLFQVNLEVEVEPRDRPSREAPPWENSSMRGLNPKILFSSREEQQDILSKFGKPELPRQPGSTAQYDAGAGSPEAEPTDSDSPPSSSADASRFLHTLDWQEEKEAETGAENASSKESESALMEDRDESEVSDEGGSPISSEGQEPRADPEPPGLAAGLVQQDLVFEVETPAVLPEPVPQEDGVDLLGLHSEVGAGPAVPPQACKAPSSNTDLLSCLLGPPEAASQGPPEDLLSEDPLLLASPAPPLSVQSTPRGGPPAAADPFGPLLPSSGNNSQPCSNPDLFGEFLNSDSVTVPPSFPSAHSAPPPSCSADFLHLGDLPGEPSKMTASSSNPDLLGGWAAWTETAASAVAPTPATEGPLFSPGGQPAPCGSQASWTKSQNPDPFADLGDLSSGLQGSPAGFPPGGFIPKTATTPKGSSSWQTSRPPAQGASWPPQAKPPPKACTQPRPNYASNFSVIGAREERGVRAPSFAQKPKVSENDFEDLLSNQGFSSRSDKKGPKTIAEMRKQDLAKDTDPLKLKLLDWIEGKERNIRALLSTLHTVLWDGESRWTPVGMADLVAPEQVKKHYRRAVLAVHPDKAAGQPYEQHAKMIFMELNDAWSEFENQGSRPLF
Procedure, shortened: as §1

[19] = biological target: T19, IKK-beta (Homo sapiens, UniProt O14920)
T19 construct: host or cells: T7 phage grown in E. coli host derived from BL21
Procedure, shortened: as §1

[20] = biological target: T20, JAK1(JH1domain-catalytic) (Homo sapiens, UniProt P23458)
T20 construct: JAK1(JH1domain-catalytic); host or cells: T7 phage grown in E. coli host derived from BL21
Procedure, shortened: as §1

[21] = biological target: T21, JAK1(JH2domain-pseudokinase) (Homo sapiens, UniProt P23458)
T21 construct: JAK1(JH2domain-pseudokinase); host or cells: T7 phage grown in E. coli host derived from BL21
Procedure, shortened: as §1

[22] = biological target: T22, MAP4K2 (Homo sapiens, UniProt Q12851)
T22 construct: host or cells: E. coli host derived from the BL21 strain, infected with T7 phage
T22 sequence (Q12851 whole entry): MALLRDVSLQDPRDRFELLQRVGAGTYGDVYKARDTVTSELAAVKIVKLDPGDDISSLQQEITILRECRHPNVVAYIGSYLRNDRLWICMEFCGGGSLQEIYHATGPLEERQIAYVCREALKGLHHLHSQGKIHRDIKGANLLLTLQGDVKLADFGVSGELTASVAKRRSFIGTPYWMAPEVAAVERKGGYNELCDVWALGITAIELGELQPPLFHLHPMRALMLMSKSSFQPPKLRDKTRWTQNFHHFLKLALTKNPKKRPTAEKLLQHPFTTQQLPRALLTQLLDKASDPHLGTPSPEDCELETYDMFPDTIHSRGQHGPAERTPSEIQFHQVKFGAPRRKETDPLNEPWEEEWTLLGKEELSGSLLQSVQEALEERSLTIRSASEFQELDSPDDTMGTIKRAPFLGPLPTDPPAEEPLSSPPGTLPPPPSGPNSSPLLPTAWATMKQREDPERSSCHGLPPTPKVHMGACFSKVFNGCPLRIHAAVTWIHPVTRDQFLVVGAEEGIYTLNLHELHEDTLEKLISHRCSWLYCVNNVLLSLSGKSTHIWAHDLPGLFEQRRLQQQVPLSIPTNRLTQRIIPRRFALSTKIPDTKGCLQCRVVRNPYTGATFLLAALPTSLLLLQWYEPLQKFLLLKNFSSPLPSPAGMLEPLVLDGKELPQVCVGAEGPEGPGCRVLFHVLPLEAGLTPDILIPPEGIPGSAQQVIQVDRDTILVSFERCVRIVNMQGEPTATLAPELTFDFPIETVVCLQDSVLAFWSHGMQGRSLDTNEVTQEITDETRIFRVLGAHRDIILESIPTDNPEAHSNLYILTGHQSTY
Procedure, shortened: as §1

[23] = biological target: T23, MEK1 (Homo sapiens, UniProt Q02750)
T23 construct: host or cells: E. coli host derived from the BL21 strain, infected with T7 phage
Procedure, shortened: as §1

[24] = biological target: T24, MET (Homo sapiens, UniProt P08581)
T24 construct: host or cells: E. coli host derived from the BL21 strain, infected with T7 phage
Procedure, shortened: as §1

[25] = biological target: T25, MLK3 (Homo sapiens, UniProt Q16584)
T25 construct: host or cells: T7 phage grown in E. coli host derived from BL21
Procedure, shortened: as §1

[26] = biological target: T26, MRCKA (Homo sapiens, UniProt Q5VT25)
T26 construct: host or cells: T7 phage grown in E. coli host derived from BL21
T26 sequence (Q5VT25 whole entry): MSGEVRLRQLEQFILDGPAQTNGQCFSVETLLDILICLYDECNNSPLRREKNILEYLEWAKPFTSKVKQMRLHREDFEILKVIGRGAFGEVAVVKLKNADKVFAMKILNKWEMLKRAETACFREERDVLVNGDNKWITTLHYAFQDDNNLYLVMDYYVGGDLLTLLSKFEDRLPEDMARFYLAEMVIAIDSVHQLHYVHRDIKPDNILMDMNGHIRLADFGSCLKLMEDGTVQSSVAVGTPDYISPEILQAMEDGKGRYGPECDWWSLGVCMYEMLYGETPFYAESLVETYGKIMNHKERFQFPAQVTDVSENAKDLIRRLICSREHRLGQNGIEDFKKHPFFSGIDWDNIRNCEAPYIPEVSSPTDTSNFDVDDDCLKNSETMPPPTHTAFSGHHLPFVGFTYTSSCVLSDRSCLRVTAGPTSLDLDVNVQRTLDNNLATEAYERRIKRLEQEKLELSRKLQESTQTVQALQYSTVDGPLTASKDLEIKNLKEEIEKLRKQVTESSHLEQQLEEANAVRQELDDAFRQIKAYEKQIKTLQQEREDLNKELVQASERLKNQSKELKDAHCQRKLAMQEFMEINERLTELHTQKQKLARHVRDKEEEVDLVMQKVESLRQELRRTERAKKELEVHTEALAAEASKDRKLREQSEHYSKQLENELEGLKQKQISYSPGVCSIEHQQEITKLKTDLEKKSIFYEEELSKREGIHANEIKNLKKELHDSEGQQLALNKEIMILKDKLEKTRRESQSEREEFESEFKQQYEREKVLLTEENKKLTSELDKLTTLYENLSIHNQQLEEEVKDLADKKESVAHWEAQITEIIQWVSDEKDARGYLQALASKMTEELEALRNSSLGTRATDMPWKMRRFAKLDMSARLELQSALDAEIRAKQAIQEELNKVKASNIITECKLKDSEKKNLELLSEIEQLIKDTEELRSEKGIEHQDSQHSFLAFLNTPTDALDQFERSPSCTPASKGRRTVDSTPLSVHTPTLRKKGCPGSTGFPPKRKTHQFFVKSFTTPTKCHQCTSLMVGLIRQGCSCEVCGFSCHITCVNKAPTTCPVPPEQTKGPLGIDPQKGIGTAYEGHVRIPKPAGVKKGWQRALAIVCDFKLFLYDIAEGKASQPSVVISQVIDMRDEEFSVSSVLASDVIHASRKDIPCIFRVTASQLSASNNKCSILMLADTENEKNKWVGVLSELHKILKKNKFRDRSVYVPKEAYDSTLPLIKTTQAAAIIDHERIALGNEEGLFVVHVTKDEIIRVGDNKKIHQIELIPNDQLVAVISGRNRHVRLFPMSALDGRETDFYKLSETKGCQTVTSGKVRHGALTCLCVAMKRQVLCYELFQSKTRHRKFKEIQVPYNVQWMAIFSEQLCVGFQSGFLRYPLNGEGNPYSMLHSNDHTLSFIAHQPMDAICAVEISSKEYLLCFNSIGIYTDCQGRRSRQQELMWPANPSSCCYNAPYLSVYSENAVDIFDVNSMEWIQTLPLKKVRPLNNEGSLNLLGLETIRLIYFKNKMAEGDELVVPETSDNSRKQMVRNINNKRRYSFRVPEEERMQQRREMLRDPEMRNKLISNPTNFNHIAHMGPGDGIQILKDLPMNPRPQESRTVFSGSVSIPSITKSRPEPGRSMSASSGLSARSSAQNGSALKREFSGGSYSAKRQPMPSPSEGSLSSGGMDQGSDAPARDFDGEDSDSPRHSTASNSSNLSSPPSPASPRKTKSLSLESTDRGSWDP
Procedure, shortened: as §1

[27] = biological target: T27, MST2 (Homo sapiens, UniProt Q13188)
T27 construct: host or cells: T7 phage grown in E. coli host derived from BL21
Procedure, shortened: as §1

[28] = biological target: T28, NEK6 (Homo sapiens, UniProt Q9HC98)
T28 construct: host or cells: T7 phage grown in E. coli host derived from BL21
Procedure, shortened: as §1

[29] = biological target: T29, PDGFRB (Homo sapiens, UniProt P09619)
T29 construct: host or cells: E. coli host derived from BL21, infected with T7 phage
T29 sequence (P09619 33-1106): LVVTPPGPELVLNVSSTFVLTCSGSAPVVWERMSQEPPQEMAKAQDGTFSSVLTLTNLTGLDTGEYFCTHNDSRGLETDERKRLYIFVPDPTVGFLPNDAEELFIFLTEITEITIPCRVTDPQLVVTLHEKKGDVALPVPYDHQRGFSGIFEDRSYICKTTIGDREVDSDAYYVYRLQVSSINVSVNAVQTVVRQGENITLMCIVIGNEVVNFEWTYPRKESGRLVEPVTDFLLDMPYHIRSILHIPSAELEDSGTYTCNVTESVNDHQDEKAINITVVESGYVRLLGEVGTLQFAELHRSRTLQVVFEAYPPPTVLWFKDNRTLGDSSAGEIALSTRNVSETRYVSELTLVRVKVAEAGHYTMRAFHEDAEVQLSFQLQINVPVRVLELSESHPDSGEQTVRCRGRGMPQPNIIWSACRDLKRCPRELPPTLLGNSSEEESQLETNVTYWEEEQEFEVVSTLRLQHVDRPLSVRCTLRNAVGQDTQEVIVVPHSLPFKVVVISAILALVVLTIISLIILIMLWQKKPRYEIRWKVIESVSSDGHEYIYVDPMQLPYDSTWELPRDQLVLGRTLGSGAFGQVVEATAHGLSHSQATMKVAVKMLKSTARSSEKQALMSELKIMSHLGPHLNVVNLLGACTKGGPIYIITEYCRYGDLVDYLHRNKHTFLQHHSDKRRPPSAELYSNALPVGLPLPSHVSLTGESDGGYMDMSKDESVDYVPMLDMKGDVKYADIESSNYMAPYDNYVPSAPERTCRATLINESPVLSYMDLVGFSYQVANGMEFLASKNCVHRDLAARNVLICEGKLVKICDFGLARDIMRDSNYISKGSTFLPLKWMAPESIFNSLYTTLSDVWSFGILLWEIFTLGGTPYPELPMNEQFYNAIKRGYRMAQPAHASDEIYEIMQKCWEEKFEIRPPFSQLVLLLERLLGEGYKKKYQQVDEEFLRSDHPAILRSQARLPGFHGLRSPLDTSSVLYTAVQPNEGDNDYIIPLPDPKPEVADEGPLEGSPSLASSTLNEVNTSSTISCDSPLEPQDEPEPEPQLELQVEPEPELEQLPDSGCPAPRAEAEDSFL
Procedure, shortened: as §1

[30] = biological target: T30, PKAC-beta (Homo sapiens, UniProt P22694)
T30 construct: host or cells: T7 phage in E. coli host derived from BL21
Procedure, shortened: as §1

[31] = biological target: T31, PKMYT1 (Homo sapiens, UniProt Q99640)
T31 construct: host or cells: T7 phage in E. coli host derived from BL21
Procedure, shortened: as §1

[32] = biological target: T32, PRKCD (Homo sapiens, UniProt Q05655)
T32 construct: host or cells: T7 phage in E. coli host derived from BL21
Procedure, shortened: as §1

[33] = biological target: T33, PRKCQ (Homo sapiens, UniProt Q04759)
T33 construct: host or cells: T7 phage in E. coli host derived from BL21
Procedure, shortened: as §1

[34] = biological target: T34, PYK2 (Homo sapiens, UniProt Q14289)
T34 construct: host or cells: E. coli host derived from BL21, T7 phage display
Procedure, shortened: as §1

C#Cc1cccc(Nc2ncnc3cc(OC)c(OCCCN4CCOCC4)cc23)c1 [NRC-2694, N-(3-ethynylphenyl)-7-methoxy-6-[3-(4-morpholinyl)propoxy]-4-quinazolinamine] was tested, and the remaining binding at 10 µM [1] was 67%, the remaining binding at 10 µM [2] was 43% and the remaining binding at 10 µM [3] was 46%. It also gave a remaining binding at 10 µM [4] of 92%, a remaining binding at 10 µM [5] of 100% and a remaining binding at 10 µM [6] of 0.55%. For the same compound, the remaining binding at 10 µM [7] was 55%, the remaining binding at 10 µM [8] was 52% and the remaining binding at 10 µM [9] was 58%. For the same compound, the remaining binding at 10 µM [10] was 0%, the remaining binding at 10 µM [11] was 56% and the remaining binding at 10 µM [12] was 64%. It also gave a remaining binding at 10 µM [13] of 25%, a remaining binding at 10 µM [14] of 66% and a remaining binding at 10 µM [15] of 98%. For the same compound, the remaining binding at 10 µM [16] was 10%, the remaining binding at 10 µM [17] was 69% and the remaining binding at 10 µM [18] was 0.95%. The remaining binding at 10 µM [19] was 51%, the remaining binding at 10 µM [20] was 15% and the remaining binding at 10 µM [21] was 81%. It also gave a remaining binding at 10 µM [22] of 48%, a remaining binding at 10 µM [23] of 50% and a remaining binding at 10 µM [24] of 33%. It also gave a remaining binding at 10 µM [25] of 72%, a remaining binding at 10 µM [26] of 81% and a remaining binding at 10 µM [27] of 85%. For the same compound, the remaining binding at 10 µM [28] was 94%, the remaining binding at 10 µM [29] was 10% and the remaining binding at 10 µM [30] was 88%. The remaining binding at 10 µM [31] was 74%, the remaining binding at 10 µM [32] was 84% and the remaining binding at 10 µM [33] was 83%. The remaining binding at 10 µM [34] was 71%.
